In one data set the test system is rice alpha-glucosidase. Put plainly: Degradation by rice alpha-glucosidase. Particulars: for Glucose in degradation product by alpha-glucosidase / Others in degradation product by alpha-glucosidase / Trehalose in degradation product by alpha-glucosidase: pH4.0, 37° C., 18 hours. Type of data set: biochemical. As to the method:
(§1) The non-reducing saccharide preparations PI, PII, PIII, PIV and PV as substrates prepared in Experiment 4 were subjected to pig pancreas alpha-amylase, rice alpha-glucosidase and acetone-pulverized rat small intestine enzyme, all of which were products of Sigma Chemical Co., St Louis, Mo., USA, and the degradation products were analyzed on high-performance liquid chromatography for saccharide composition. The reaction by alpha-amylase was carried out by dissolving 10 mg of either substrate in 1 ml of 50 mM phosphate buffer (pH6.9), adding thereto one unit of alpha-amylase and incubating at 37° C. for 18 hours. The reaction by alpha-glucosidase was conducted similarly as in the case of alpha-amylase except that 50 mM acetate buffer (pH4.0) was used. In the case of acetone-pulverized rat small intestine enzyme, the reaction was conducted similarly as in the case of alpha-amylase except that 50 mM maleic acid buffer (pH6.0) was used.

Another data set relates to beta-amylase. Put plainly: Degradation by beta-amylase. Type of data set: biochemical. An excerpt:
Considering the reaction characteristics of glucoamylase, these saccharides very likely bear structures where glucose molecule(s) is bound to trehalose molecule via alpha1,4 or alpha-1,6 linkage: Saccharide PI is a non-reducing saccharide with a glucose polymerization degree of 3 where one glucose molecule is bound to one trehalose molecule; saccharide PII, another non-reducing saccharide with a glucose polymerization degree of 4 where two glucose molecules are bound to one trehalose molecule; saccharide PIII, still another non-reducing saccharide with a glucose polymerization degree of 5 where three glucose molecules are bound to one trehalose molecule; saccharide PIV, still another non-reducing saccharide with a glucose polymerization degree of 6 where four glucose molecules are bound to one trehalose molecule; and saccharide PV, still another non-reducing saccharide with a polymerization degree of 7 where five glucose molecules are bound to one trehalose molecule.

The subject of data set [1] is pig pancreas alpha-amylase. Description: Degradation by pig pancreas alpha-amylase. Type of data set: biochemical. The settings on record: for G1 (glucose) in degradation product by alpha-amylase / G2 (maltose) in degradation product by alpha-amylase / G3 (maltotriose) in degradation product by alpha-amylase / PI in degradation product by alpha-amylase / PII in degradation product by alpha-amylase: pH6.9, 37° C., 18 hours. The procedure: as §1

The subject of the next data set is glucoamylase. Put plainly: Enzymatic hydrolysis by glucoamylase. Type of data set: biochemical. Particulars: for Molar ratio (glucose/trehalose): degradation product by glucoamylase; for Glucose in degradation product by glucoamylase / Trehalose in degradation product by glucoamylase: pH4.5, 40° C., 6 hours. The procedure: Fifty milligrams of the non-reducing saccharide preparation PI, PII, PIII, PIV or PV prepared in Experiment 4 was dissolved in 1 ml of 50 mM acetate buffer (pH4.5), added with one unit of the glucoamylase commercialized by Seikagaku Corp., Tokyo, Japan, incubated at 40° C. for 6 hours for enzymatic hydrolysis and analyzed for degradation products on high-performance liquid chromatography, thus detecting glucose and trehalose as sole products. The noted glucose contents, trehalose contents and their molar ratios were as shown in Table 5.

In data set [2] the test system is acetone-pulverized rat small intestine enzyme. Description: Degradation by acetone-pulverized rat small intestine enzyme. Type of data set: biochemical. The settings on record: for Glucose in degradation product by acetone-powdered rat small intestine enzyme / Others in degradation product by acetone-powdered rat small intestine enzyme / Trehalose in degradation product by acetone-powdered rat small intestine enzyme: pH6.0, 37° C., 18 hours. As to the method:
as §1

In data set [3] the target is T1, trehalose-releasing enzyme (Rhizobium sp. M-11, UniProt Q53238).
T1 construct: M-11, about 58-68 kDa
T1 sequence (Q53238 1-596): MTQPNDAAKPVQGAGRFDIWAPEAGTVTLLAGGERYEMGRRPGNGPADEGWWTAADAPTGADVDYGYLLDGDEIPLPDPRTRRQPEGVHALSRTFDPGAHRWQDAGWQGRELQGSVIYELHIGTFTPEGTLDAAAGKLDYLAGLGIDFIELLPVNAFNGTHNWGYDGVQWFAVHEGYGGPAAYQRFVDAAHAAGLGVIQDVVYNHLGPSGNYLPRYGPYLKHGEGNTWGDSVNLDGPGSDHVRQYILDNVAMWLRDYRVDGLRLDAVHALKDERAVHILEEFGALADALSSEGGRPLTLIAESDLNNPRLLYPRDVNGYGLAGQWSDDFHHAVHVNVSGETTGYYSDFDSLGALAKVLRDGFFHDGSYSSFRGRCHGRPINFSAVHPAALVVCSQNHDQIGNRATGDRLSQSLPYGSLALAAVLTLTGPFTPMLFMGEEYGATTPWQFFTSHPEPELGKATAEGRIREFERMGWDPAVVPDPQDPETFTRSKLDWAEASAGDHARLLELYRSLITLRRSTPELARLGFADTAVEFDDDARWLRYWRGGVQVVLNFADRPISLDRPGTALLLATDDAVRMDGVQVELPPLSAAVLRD
Type of data set: biochemical, Rhizobium species M-11. Particulars: for Composition: trehalose formed / Composition: reducing saccharide formed: 20% substrate, 2 units/g, 40° C., pH7.0, 48 hours; for Composition: reducing saccharide formed: glucose, maltose, maltotriose, maltotetraose or maltopentaose respectively; for Composition: residual substrate: trehalose-releasing enzyme, 48 h, pH 7. The procedure: Alpha-glycosyl trehaloses as substrates were prepared in accordance with the method described in Japanese Patent Application No. 349,216/93. More particularly, 20% aqueous solutions of maltotriose, maltotetraose, maltopentaose, maltohexaose or maltoheptaose as reducing partial starch hydrolysate were added with 2 units/g substrate solid of a purified non-reducing saccharide-forming enzyme obtained by the method in […], reacted at 40° C. and pH7.0 for 48 hours, heated for inactivation, filtered, deionized, concentrated in conventional manner and applied to ion exchange column chromatography on a strongly-acidic cation exchange "XT-1016" in sodium form. The ion exchange resin was packed in 3 jacketed-stainless steel columns, inner diameter of 2.0 cm, length of 1 m, and the columns were cascaded, loaded with 5 v/v % reaction saccharide liquid against the resin and injected with 55° C. water at SV0.13 for fractionation while keeping the temperature inside the columns at 55° C., thus obtaining high-purity preparations of non-reducing saccharides with glucose polymerization degrees of 3 or higher.
20% Aqueous solutions of these five types of non-reducing saccharides or alpha-glycosyl trehaloses were prepared, added with 2 units/g substrate solid of the purified trehalose-releasing enzyme obtained in Experiment 15, reacted at 40° C. and pH7.0 for 48 hours, deionized and subjected to high-performance liquid chromatography on "WAKO BEADS WB-T-330" for analysis of reaction products. As control, maltotriose, maltotetraose, maltopentaose, maltohexaose and maltoheptaose were subjected to the purified trehalose-releasing enzyme similarly as above and then analyzed on high-performance liquid chromatography.

In the next data set the test system is pig kidney trehalase. Description: Degradation by pig kidney trehalase. Particulars: trehalose, or trehalose formed from PI-PV; pH5.7, 37° C., 18 hours for the latter. Type of data set: biochemical. The procedure:
In order to purify trehalose from respective reaction products, they were decolored, deionized, concentrated and subjected to column fractionation on a strongly-acidic cation exchange of sodium form "XT-1016", followed by recovering high-purity fractions with trehalose contents of 97% or higher. The fractions were then concentrated to about 65% and allowed to standing at 25° C. for 2 days to crystallize out crystalline trehalose hydrate which was then separated and dried in vacuo to obtain a high-purity preparation with a trehalose content of 99% or higher. The yields against respective starting substrates on dry solid basis were as follows: from glycosyl trehalose, 9.5%; from maltosyl trehalose, 14.9%; from maltotriosyl trehalose, 16.0%; from maltotetraosyl trehalose, 18.5%; and from maltopentaosyl trehalose, 17.7%. […] As evident from the above results, the saccharides formed by subjecting alpha-glycosyl trehaloses to the trehalose-releasing enzyme were identified to be trehalose.

SMILES strings stand for the structures. Entries after “also recorded” stand apart in the source; their conditions may differ.

On to `OC[C@H]1O[C@H](O[C@H]2O[C@H](CO)[C@@H](O[C@H]3O[C@H](CO)[C@@H](O[C@H]4O[C@H](CO)[C@@H](O[C@H]5O[C@H](CO)[C@@H](O[C@H]6O[C@H](CO)[C@@H](O[C@H]7O[C@H](CO)[C@@H](O)[C@H](O)[C@H]7O)[C@H](O)[C@H]6O)[C@H](O)[C@H]5O)[C@H](O)[C@H]4O)[C@H](O)[C@H]3O)[C@H](O)[C@H]2O)[C@H](O)[C@@H](O)[C@@H]1O` [PV, alpha-maltopentaosyl trehalose], for which, in the data set on rice alpha-glucosidase, the “Degradation by alpha-glucosidase (in words)” value is “degradable”, the “Glucose in degradation product by alpha-glucosidase” value (shortened to “Glucose … by alpha-glucosidase”) amounted to 71.4%, the “Others in degradation product by alpha-glucosidase” value (from here on “Others … by alpha-glucosidase”) was determined as 0.3% and the “Trehalose in degradation product by alpha-glucosidase” value (“Trehalose … by alpha-glucosidase” below) is given as 28.3%. Besides, the “Degradation by beta-amylase (in words)” value in the data set on beta-amylase was “two maltose molecules and one saccharide PI molecule”. Further, in data set [1], the “Degradation by alpha-amylase (in words)” value was “degraded by alpha-amylase into smaller oligosaccharides; also recorded: yields non-reducing saccharide PII and maltotriose as predominant products”; the “G1 (glucose) in degradation product by alpha-amylase” value (from here on “G1 (glucose) in degradation product”) is listed as 1.0%; the “G2 (maltose) in degradation product by alpha-amylase” value (from here on “G2 (maltose) in degradation product”) came out at 8.6%; the “G3 (maltotriose) in degradation product by alpha-amylase” value (from here on “G3 (maltotriose) in degradation product”) is listed as 35.3%. For the same compound, in data set [1], the “PI in degradation product by alpha-amylase” value (from here on “PI in degradation product”) is reported as 10.2% and the “PII in degradation product by alpha-amylase” value (“PII in degradation product” below) amounted to 44.9%. In the data set with glucoamylase, the “Degradation by glucoamylase (in words)” value is “five glucose molecules and one trehalose molecule”; the “Molar ratio (glucose/trehalose)” value came to 5.11; the “Glucose in degradation product by glucoamylase” value (“Glucose … by glucoamylase” below) is recorded as 72.9%; the “Trehalose in degradation product by glucoamylase” value (shortened to “Trehalose … by glucoamylase”) is listed as 27.1%. Further, in data set [2], the “Degradation by acetone-pulverized rat small intestine enzyme (in words)” value was “degradable”, the “Glucose in degradation product by acetone-powdered rat small intestine enzyme” value came to 73.4%, the “Others in degradation product by acetone-powdered rat small intestine enzyme” value was determined as 0.1% and the “Trehalose in degradation product by acetone-powdered rat small intestine enzyme” value stood at 26.5%. Besides, in data set [3], the “Composition: trehalose formed” value is 29.1%, the “Composition: reducing saccharide formed” value amounted to 70.6% and the “Composition: residual substrate” value is 0.3%. The “Degradation by pig kidney trehalase (in words)” value in the data set with pig kidney trehalase is “degradable into glucose by the trehalase”.

Regarding `OC[C@H]1O[C@H](O[C@H]2O[C@H](CO)[C@@H](O[C@H]3O[C@H](CO)[C@@H](O)[C@H](O)[C@H]3O)[C@H](O)[C@H]2O)[C@H](O)[C@@H](O)[C@@H]1O` [PI, alpha-glucosyl trehalose], in the data set on rice alpha-glucosidase, the “Degradation by alpha-glucosidase (in words)” value is listed as “degradable”, the “Glucose … by alpha-glucosidase” value stood at 36.5%, the “Others … by alpha-glucosidase” value turned out to be 0.5% and the “Trehalose … by alpha-glucosidase” value is recorded as 63.0%. For the same compound, the “Degradation by beta-amylase (in words)” value with beta-amylase is listed as “not degraded”. In data set [1], the “Degradation by alpha-amylase (in words)” value is reported as “hardly degraded by alpha-amylase”, the “G1 (glucose) in degradation product” value came out at 0%, the “G2 (maltose) in degradation product” value turned out to be 0.4% and the “G3 (maltotriose) in degradation product” value stood at 2.3%. In data set [1], the “PI in degradation product” value is 97.3% and the “PII in degradation product” value is listed as 0%. In the data set with glucoamylase, the “Degradation by glucoamylase (in words)” value is “degraded by glucoamylase into one glucose molecule and one trehalose molecule”; the “Molar ratio (glucose/trehalose)” value amounted to 1.07; the “Glucose … by glucoamylase” value turned out to be 36.2%; the “Trehalose … by glucoamylase” value is recorded as 63.8%. Also, in data set [2], the “Degradation by acetone-pulverized rat small intestine enzyme (in words)” value is recorded as “degradable”, the “Glucose in degradation product by acetone-powdered rat small intestine enzyme” value is recorded as 37.2%, the “Others in degradation product by acetone-powdered rat small intestine enzyme” value is 0.4% and the “Trehalose in degradation product by acetone-powdered rat small intestine enzyme” value is 62.4%. Also, in data set [3], the “Composition: trehalose formed” value worked out at 17.5%, the “Composition: reducing saccharide formed” value was 6.5% and the “Composition: residual substrate” value is 76.0%. In the data set on pig kidney trehalase, the “Degradation by pig kidney trehalase (in words)” value is reported as “degradable into glucose by the trehalase”.

In the case of `OC[C@H]1O[C@H](O[C@H]2O[C@H](CO)[C@@H](O[C@H]3O[C@H](CO)[C@@H](O[C@H]4O[C@H](CO)[C@@H](O)[C@H](O)[C@H]4O)[C@H](O)[C@H]3O)[C@H](O)[C@H]2O)[C@H](O)[C@@H](O)[C@@H]1O` [PII, alpha-maltosyl trehalose], in the data set on rice alpha-glucosidase, the “Degradation by alpha-glucosidase (in words)” value is listed as “degradable”, the “Glucose … by alpha-glucosidase” value is 52.1%, the “Others … by alpha-glucosidase” value was found to be 0.3% and the “Trehalose … by alpha-glucosidase” value was 47.6%. The “Degradation by beta-amylase (in words)” value with beta-amylase is “not degraded”. In data set [1], the “Degradation by alpha-amylase (in words)” value is given as “hardly degraded by alpha-amylase”, the “G1 (glucose) in degradation product” value is 0%, the “G2 (maltose) in degradation product” value was 0.8% and the “G3 (maltotriose) in degradation product” value worked out at 0.4%. Moreover, in data set [1], the “PI in degradation product” value was determined as 0% and the “PII in degradation product” value is listed as 98.8%. In the data set on glucoamylase, the “Degradation by glucoamylase (in words)” value was “two glucose molecules and one trehalose molecule; also recorded: one trehalose molecule and two glucose molecules”; the “Molar ratio (glucose/trehalose)” value was 2.06; the “Glucose … by glucoamylase” value came out at 52.0%; the “Trehalose … by glucoamylase” value was found to be 48.0%. Besides, in data set [2], the “Degradation by acetone-pulverized rat small intestine enzyme (in words)” value is “degradable”, the “Glucose in degradation product by acetone-powdered rat small intestine enzyme” value is 52.5%, the “Others in degradation product by acetone-powdered rat small intestine enzyme” value worked out at 0.4% and the “Trehalose in degradation product by acetone-powdered rat small intestine enzyme” value was 47.1%. For the same compound, in data set [3], the “Composition: trehalose formed” value is on record as 44.3%, the “Composition: reducing saccharide formed” value came out at 44.4% and the “Composition: residual substrate” value was 11.3%. In the data set with pig kidney trehalase, the “Degradation by pig kidney trehalase (in words)” value was “degradable into glucose by the trehalase”.
